Source: US11905338B2, “Peptides for use as cell-penetrating peptides” (CENTRE NATIONAL DE LA RECHERCHE SCIENTIFIQUE, priority 2018, dated 2024)
“Also recorded” adds a separate entry of the source. Where no end group is shown, it is not given here. [ ]: non-standard residue; d: D form. Ahx = NCCCCCC(=O)O

Key:
[1] = tested on: firefly luciferase (FLuc) in U87 cells; test: Luciferase reporter gene silencing assay; type: cell-based, human; conditions: for Luciferase knock-down at R=40 relative to R=20: R=40, siFLuc 20 nM; for Incubation time for maximum and saturating FLuc silencing / Reduction of FLuc activity: 20 nM siFLuc; for Reduction in the luciferase activity in presence of serum: 10% serum, 15-20 nM siRNA (CPP1), 10-20 nM (CPP2); for Reduction of FLuc activity: 5 min incubation, then 36 h in medium; for Fold more active than C6M1-L in reduced luciferase expression / Fold more active than C6M1 in reduced luciferase expression: CPP=200 nM, siRNA=10 nM; for Activity of nanoparticles in luciferase silencing: R=20, siFLuc, compared with parent CPP
Experimental: Transfection experiments. For Luciferase assay, the different cells (5,000 cells per well) were seeded 24 h before experiment into 96-well plates using the corresponding medium as described above. […] In the meantime, the growth medium covering the cells was replaced by 70 μL of fresh pre-warmed serum-free DMEM. […] After the addition of DMEM supplemented with 20% FBS (final FBS concentration=10%), cells were further incubated for 36 h and finally lysed for the luciferase detection. For transfection in the presence of serum, cells were incubated with nanoparticles in DMEM+10% FBS for 1.5 h at 37° C., and then DMEM supplemented with 10% FBS were added to the cells which were further incubated for 36 h before the final cell lyses for the luciferase detection.
Luciferase reporter gene silencing assay. The evaluation of siRNA delivery using the different vectors was carried out by measuring the remaining luciferase firefly (FLuc) activity in cell lysates. Briefly, after 36 h, the medium covering the cells was carefully removed and replaced by 50 μL of 0.5× Passive Lysis Buffer (PLB; Promega). After 30 min of shaking at 4° C., plates containing the cells were centrifuged (10 min, 1,800 rpm, 4° C.) and 5 μL of each cell lysate supernatant were finally transferred into a white 96-well plate. For the U87-FLuc-NLuc cells, both luciferase activities were quantified using a plate-reading luminometer (POLARstar Omega, BMG Labtech) using half-diluted Dual Luciferase Assay Reagents (Promega) as reported elsewhere (G. Aldrian, et al., (2017) J. Control. Release Off. J. Control. Release Soc. 256, 79-91). The results were expressed as percentage of relative light units (RLU) for each luciferase normalized first to non-treated cells (% FLuc and % NLuc) and then normalized to the value of % NLuc to obtain the Relative Luc Activity (% FLuc/% NLuc).
Cellular activity of CPP-based nanoparticles was evaluated in a luciferase screening assay, as previously described (L. N. Patel, et al., (2007) Pharm. Res. 24, 1977-1992; A. Elmquist, et al., (2001) Exp. Cell Res. 269, 237-244)). The knock-down efficiency of the different CPP:siRNA nanoparticles was performed on U87 cell line stably transfected for constitutive expression of FLuc/NLuc reporter genes (U87-FRT-CMV/Fluc-CMV/iRFP-IRES-NLuc).

[2] = Circular dichroism conformational analysis; type: physicochemical; conditions: for Conformation by circular dichroism, PEPTIDE +siRNA: CPP:siRNA molar ratio R 20, CPP 40 μM; for Conformation by circular dichroism, PEPTIDE +siRNA +charged LUVs / Conformation by circular dichroism, PEPTIDE +siRNA +neutral LUVs: R 20, CPP:lipid r 10, CPP 40 μM; for Conformation by circular dichroism, PEPTIDE: peptide free in solution, CPP 40 μM, rc = random coiled
Experimental: Circular dichroism (CD) measurements. CD spectra were recorded on a Jasco 810 (Japan) dichrograph in quartz suprasil cells (Hellma) with an optical path of 1 mm for peptide in solution or in the presence of liposomes vesicles. The same concentrations of peptide (40 μM) was used for each condition. Spectra were obtained from 3 accumulations between 190 nm and 260 nm with a data pitch of 0.5 nm, a bandwidth of 1 nm and a standard sensitivity.
The predicted structures were then compared to experimental investigations. Circular dichroism spectra were recorded for the peptides free in solution, afterwards for the peptides in the presence of siRNA and then after the addition of liposomes.

[3] = Dynamic light scattering and zeta potential of nanoparticles; type: physicochemical; conditions: for PdI / Mean size (nm) I (%) / Mean size (nm) Nb (%): CPP:siRNA R = 20, 5% glucose; for Mean size (nm) I (%): intensity; for Mean size (nm) Nb (%): number
Experimental: Dynamic light scattering (DLS) and Zeta potential (ZP). CPPs:siRNA nanoparticles were evaluated with a Zetasizer NanoZS (Malvern) in terms of mean size (Z-average) of the particle distribution and of homogeneity (PdI). Zeta potential was determined in 5% glucose+5 mM of NaCl. All results were obtained from three independent measurements (three runs for each measurement at 25° C.).

U87 cells [4] = test: LDH cytotoxicity measurement; type: cell-based, human; conditions: incubation times 5 min to 90 min, 20 nM siFLuc
Experimental: Measurement of cell cytotoxicity. Evaluation of cytotoxicity induced by the nanoparticles was performed using Cytotoxicity Detection Kit^Plus (LDH, Roche Diagnostics) on 50 μL of supernatant, by following the manufacturer instructions.

[5] = Dynamic light scattering and zeta potential of nanoparticles; type: physicochemical
living U87 cells = test: Spinning disk internalization kinetics of Cy3b-labelled siRNA; type: cell-based, human; conditions: siRNA-Cy3b 20 nM, R=20; for Incubation time to maximal fluorescence of delivered siRNA: maximal fluorescence 90%±5%, 900 s to 945 s
Experimental: For microscopy experiments, 300,000 U87 cells were seeded 24 h before imaging into glass bottom dishes (FluoroDish, World Precision Instruments). Before experiments, cells were washed twice with D-PBS and covered with 1,600 μL of complete medium. Afterwards, 400 μL of NPs (peptide:siRNA; R=20, siRNA=20 nM), formulated in an aqueous solution of 5% glucose were directly added on the cells as previously described.
For Spinning disk experiment, an inverted microscope (Nikon Ti Eclipse) coupled to a spinning disk (ANDOR) system was used to study the internalization kinetics of the NPs inside living cells. After the addition of the NPs, cells were maintained at 37° C. by a cage incubator (Okolab) and images were directly recorded every 5 s for 1,200 s with an EM-CCD camera (iXon Ultra) and projected with the Andor IQ3 software. Control experiments were performed to ensure that no emission bleed through was observed between the different channels. All images were treated with the ImageJ software.

U87 cells [6] = test: Cytotoxicity from Western blot internal control (vinculin) and total protein (BCA); type: cell-based, human; conditions: siCDK4 50 nM
Experimental: Western blotting. Transfected cells washed in PBS, and lysed in RIPA buffer [50 mM Tris pH 8.0, 150 mM sodium chloride, 1% Triton X-100, 0.1% SDS (sodium dodecyl sulfate, Sigma-Aldrich), including protease inhibitors (SigmaFAST, Sigma-Aldrich)]. Cells were incubated for 5 min on ice with 130 μL/24-well lysis buffer. Thereafter, cells were scrapped and transferred in a 1.5 ml tube. After 5 min on ice, the cell lysates were centrifuged (10 min, 13,400 rpm, 4° C.), supernatants were collected and protein concentrations were determined using the Pierce BCA Protein Assay (ThermoFisher). Cell extracts (0.25-0.38 μg/μL) were separated by 4-20% Mini-PROTEAN® TGX™ Precast Gel (Bio-Rad). After electrophoresis, samples were transferred onto Trans-Blot® Turbo™ Mini PVDF Transfer membrane (Bio-Rad). As antibodies (all from Cell Signaling), we used anti-cyclin B1 mouse mAb V152, anti-CDK4 rabbit mAb D9G3E, anti-Vinculin rabbit mAb E1E9V, anti-mouse IgG HRP and anti-rabbit IgG HRP. […] The signal intensities of the blots were quantified by Image J.
The cytotoxicity could be observed in Western blot using the internal control (Vinculin expression: bars in dark gray) or the total protein concentrations (measured by the BCA kit, value in red).

Row | Substance | Luciferase knock-down at R=40 relative to R=20 [1] | Conformation by circular dichroism, PEPTIDE +siRNA [2] | Conformation by circular dichroism, PEPTIDE +siRNA +charged LUVs [2] | Conformation by circular dichroism, PEPTIDE +siRNA +neutral LUVs [2] | Conformation by circular dichroism, PEPTIDE [2] | PdI [3] | Mean size (nm) I (%) [3] [nm] | Mean size (nm) Nb (%) [3] [nm] | other results
1 | LLRLLRWWRLLRLL (CPP3) | slightly increased | alpha helical structure; also recorded: helix | helix | helix | turn | around 0.3 |  |  | 
2 | LLRLLRWWWRLLRLL-NH2 [CPP2, LLRLLRWWWRLLRLL] | slightly increased | alpha helical structure; also recorded: helix | helix | helix | turn/rc |  | 80.0 ± 4.9 | 35.7 ± 7.3 | Cytotoxicity (U87 cells [4]): without any cytotoxicity; ZP (mV) ([5]; CPP:siRNA R = 20, 5% glucose with 1 mM NaCl): 28.8 ± 0.9 mV; Reduction of firefly luciferase expression ([1]; 1 nM to 20 nM siRNA, R 20, L or D isoform): dose-dependent manner; Incubation time for maximum and saturating FLuc silencing [1]: 60 min; Reduction in the luciferase activity in presence of serum [1]: around 70%; Reduction of FLuc activity [1]: 40%; Fold more active than C6M1-L in reduced luciferase expression [1]: 3.5 fold; Fold more active than C6M1 in reduced luciferase expression [1]: 2 fold; Increase of knock-down efficiency, dilution condition versus vol:vol condition ([1]; U87 cells, siFLuc 5-20 nM): 2 fold; IC50 values of internalization (50%), incubation time (living U87 cells): 185 s; Incubation time to maximal fluorescence of delivered siRNA (living U87 cells): ~15 min
3 | LLRLLRWWWWRLLRLL [CPP4] | slightly increased | alpha helical structure; also recorded: helix | helix | helix | turn |  | 122.0 ± 71.5 | 23.6 ± 7.9 | 
4 | LLRLRWWWRLRLL (CPP2-2) |  |  |  |  |  |  |  |  | Activity of nanoparticles in luciferase silencing [1]: total inactivity
5 | LLWRLWRLLWRLWRLL-NH2 [CPP1, LLWRLWRLLWRLWRLL] | slightly increased | alpha helical structure; also recorded: helix | helix | helix | rc/helix |  | 73.3 ± 7.4 | 26.5 ± 4.1 | Cytotoxicity (U87 cells [4]): without any cytotoxicity; Mean size of CPP1:MBBO nanoparticles (DLS) ([5]; R=5, 10 μM CPP1): 180 nm; Incubation time for maximum and saturating FLuc silencing [1]: 60 min; Reduction in the luciferase activity in presence of serum [1]: around 70%; Reduction of FLuc activity [1]: 40%; Fold more active than C6M1-L in reduced luciferase expression [1]: 6 fold; Fold more active than C6M1 in reduced luciferase expression [1]: 3 fold; IC50 values of internalization (50%), incubation time (living U87 cells): 240 s; Incubation time to maximal fluorescence of delivered siRNA (living U87 cells): ~15 min; Cytotoxicity (vinculin, total cellular proteins) (U87 cells [6]): without any cytotoxicity; ZP (mV) ([3]; CPP:siRNA R = 20, 5% glucose with 5 mM NaCl): 42.2 ± 4.5 mV
6 | LRLRWWWRLRL (CPP2-1) |  |  |  |  |  |  |  |  | Activity of nanoparticles in luciferase silencing [1]: total inactivity
7 | RGD-Ahx-LLRLLRWWWRLLRLL (RGD[Ahx]LLRLLRWWWRLLRLL) [R-CPP2] |  |  |  |  |  |  |  |  | Reduction in the expression of luciferase ([1]; RGD-grafted peptide, R=20): ~70%
8 | RLLRLLRWWWRLLRLLR (CPP2-6R) |  |  |  |  |  | 0.34 ± 0.03 | 59.8 ± 9.3 | 25.9 ± 3.9 | 
9 | RLLRLLWWWLLRLLR-NH2 [CPP2-4R, RLLRLL-WWW-LLRLLR] |  |  |  |  |  |  |  |  | Cytotoxic effect inferred from variability of luciferase measurement ([1]; nanoparticle incubation): some cytotoxic effect
10 | RLLWRLW-----LWRLLR (RLLWRLWLWRLLR; CPP1-4R) |  |  |  |  |  | 0.50 ± 0.04 | 1012 ± 984 | 422 ± 498 | 
11 | RLLWRLWRLLWRLWRLLR (CPP1-6R) |  |  |  |  |  | 0.42 ± 0.08 | 125.3 ± 65.1 | 23.3 ± 3.4 | 
